Experimental findings from patent publication US20060211726A1, “Ascomycin derivatives for combination treatment with tazorotene” (priority 2005, published 2006) are described below.

This series has as its system psoriasis. Description: Topical treatment of a person suffering from psoriasis. Type of series: in vivo. The settings on record: 0.1% Protopic ointment twice a day plus 0.1% tazarotene (Tazorac) once a day in the same person; compared with 0.1% tazarotene alone once a day or 0.1% tacrilomus alone twice a day. As for the experimental part:
A composition according to one of examples 1-3 is administered topically once a day to person suffering from psoriasis.
Tacrilomus is administered twice a day as 0.1% Protopic® ointment to a person suffering from psoriasis. The same person receives 0.1% tazarotene as Tazorac® ointment once a day.

On to `C=CC[C@@H]1/C=C(\C)C[C@H](C)C[C@H](OC)[C@H]2O[C@@](O)(C(=O)C(=O)N3CCCC[C@H]3C(=O)O[C@H](/C(C)=C/[C@@H]3CC[C@@H](O)[C@H](OC)C3)[C@H](C)[C@@H](O)CC1=O)[C@H](C)C[C@@H]2OC` [Tacrilomus, tacrolimus], for which the “Improvement of symptoms (efficacy)” value is given as “greater efficacy” and the side effects result is listed as “fewer side effects”.
